# Where two headings read alike, the source gives them in different places.
# Columns and labels:
# HIV protease = target: T1, HIV protease (Human immunodeficiency virus type 1 group M subtype B, UniProt P04585); assay: HIV Protease Assay; type: biochemical; conditions: 4% DMSO, 450 μM substrate, pH 5.5, 30 minutes at 37° C., RP-HPLC; for inhibition at 10 µM: pH 5.5, 10 μM inhibitor, read-out: HIV Protease % Inhibition at 10 μM
# T1 construct: and purified protease
# How it was run: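 Purified protease cleaved 450 μM octapeptide substrate in 50 mM sodium acetate pH 5.5 with 100 μg/ml BSA for 30 minutes at 37° C; product analyzed by reverse-phase HPLC at UV220 after H3PO4 quench. Inhibitors tested at final 10 μM with 4% DMSO.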
# [1] = system: RF strain of HIV (CEM-SS cells); assay: Cell Culture Anti-HIV Activity (cell viability, formazan); type: cell-based; conditions: CEM-SS cells, RF strain of HIV, multiplicity of infection 0.04, 6 days at 37° C., 450 nm, read-out: HIV (CEM Cells) IC50
# Description: The antiviral activity of aminediol inhibitors of the present invention was evaluated by a microculture method which determines the increase in cell viability of an infected culture when a drug is added. The assay depends on the metabolic reduction of tetrazolium reagent by viable cells to yield a soluble colored formazan product.
# The assay was performed as follows: suspensions of CEM-SS cells (5000/well) were infected with the RF strain of HIV at a multiplicity of infection at 0.04 in a 96-well plate. The compounds of the present invention listed in the following Table 1, serially diluted in half-log fashion, were added to the infected and uninfected control cells. Untreated (infected and uninfected) cells were included as controls. Following incubation for 6 days at 37° C., viable cells in each well were quantitated by the visible light absorbance at 450 nm.
# The IC50 was calculated as the concentration of drug that increased the formazan production in virally infected cells to 50% of that produced by uninfected cells in the absence of drug.
# [2] = Human immunodeficiency virus 1, CEM-SS, 144 h
SMILES,inhibition at 10 µM (HIV protease),"IC50 [1, 2]",HIV Protease % Inhibition at 10 μM (HIV protease; 10 μM inhibitor),IC50 [1]
"C[C@@H](O)C(C)(C)OC(=O)N[C@@H](Cc1ccccc1)[C@H](O)CNC[C@@H](O)[C@H](Cc1ccccc1)NC(=O)OC(C)(C)C [Compound 275, [1S-[1R*,2S*),(S*)]-[Iminobis [2-hydroxy-1-(phenylmethyl)-3,1-propanediyl]]biscarbamic acid, 1,1-dimethylethyl 2-hydroxy-1,1-dimethylpropyl ester]",95%,450 nM,,
"CC(C)(C)OC(=O)N[C@@H](Cc1ccccc1)[C@H](O)CNC[C@@H](O)[C@H](Cc1ccccc1)NC(=O)C1NC(=O)c2ccccc21 (stereo partly drawn) [Compound 223, [1S-[1R*,2S*(2S*,3R*)]]-[3-[[3-[[(2,3-Dihydro-3-oxo-1H-isoindol-1-yl)carbonyl]amino]-2-hydroxy-4-phenylbutyl]amino]-2-hydroxy-1-(phenylmethyl)propyl]carbamic acid, 1,1-dimethylethyl ester]",89%,1400 nM,,
"C[C@H](NC=O)C(=O)N[C@H](C(=O)N[C@@H](Cc1ccccc1)[C@H](O)CNC[C@@H](O)[C@H](Cc1ccccc1)NC(=O)OC(C)(C)C)C(C)(C)C (relative stereo) [Compound 284, [1R*,2S*(2S*,3R*)]-N-[3-[[(1,1-Dimethylethoxy)carbonyl]amino]-2-hydroxy-4-phenylbutyl]amino]-2-hydroxy-1-(phenylmethyl)propyl]-N^2-(N-formyl-L-alanyl)-3-methyl-L-valinamide]",100%,4400 nM,,
"CC(C)[C@H](NC(=O)OCc1nc2ccccc2n1C)C(=O)N[C@@H](Cc1ccccc1)[C@H](O)CNC[C@@H](O)[C@H](Cc1ccccc1)NC(=O)OC(C)(C)C [Compound 170, [S-[1R*,2S*(2S*,3R*)]-N-[3-[[3-[[(1 l-Dimethylethoxy)carbonyl]amino]-2-hydroxy-4-phenylbutyl]amino]-2-hydroxy-1-(phenylmethyl)-propyl]-N^2-[[(1-methyl-1H-benzimidazol-2-yl)-methoxy]carbonyl]-L-valinamide]",100%,100 nM,,
"COc1ccccc1C[C@H](NC(=O)OC(C)(C)C)[C@H](O)CNC[C@@H](O)[C@H](Cc1ccccc1)NC(=O)OC(C)(C)C [Compound 349, [1S-[1R*,2S*(2S*,3R*)]]-[3-[[3-1,1-Dimethylethoxy)-carbonyl]amino]-2-hydroxy-4-(2-methoxyphenyl)butyl]-amino]-2-hydroxy-1-(phenylmethyl)propyl]carbamic acid, 1,1-dimethylethyl ester]",98%,370 nM,,
"CC(C)(C)OC(=O)N[C@@H](Cc1ccccc1)[C@H](O)CNC[C@@H](O)[C@H](Cc1ccccc1)NC(=O)OCc1cccnc1 [Compound 256, [R-(R*,S*)]-[Iminobis[2-hydroxy-1-(phenylmethyl)-3,1-propanediyl)]biscarbamic acid. 1,1-dimethylethyl-3-pyridinylmethyl ester]",88%,1500 nM,,
"COC(=O)N[C@H](C(=O)N[C@@H](Cc1ccccc1)[C@H](O)CNC[C@@H](O)[C@H](Cc1ccccc1)NC(=O)[C@@H](NC(=O)OC)C(C)(C)C)C(C)(C)C (relative stereo) [Compound 324, 1S-(1S*,2R*)-N, N'-Iminobis[2-hydroxy-1-(phenylmethyl)-3,1-propanediyl]bis(imino)bis[1-(1,1-dimethylethyl)-2-oxo-2,1-ethanediyl]]biscarbamic acid, dimethyl ester]",100%,220 nM,,
"CC(C)(C)OC(=O)N[C@@H](Cc1ccccc1)[C@H](O)CNC[C@@H](O)[C@H](Cc1ccccc1)NC(=O)OC(C)(C)CF [Compound 252, [1S-(1R*,2S*)]-[Iminobis[2-hydroxy-1-(phenylmethyl)-3,1-propanediyl]]biscarbamic acid 2-fluoro-1,1-dimethylethyl 1,1-dimethylethyl ester]",99%,60 nM,,
"CC(C)(C)OC(=O)N[C@@H](Cc1ccccc1)[C@H](O)CNC[C@@H](O)[C@H](Cc1ccccc1)NC(=O)C(=O)C(C)(C)C [Compound 213, [1S-[1R*,2S*(2S*,3R*)]]-[3-[[3-[(3,3-Dimethyl-1,2-dioxobutyl)amino]-2-hydroxy-4-phenylbutyl]amino]-2-hydroxy-1-(phenylmethyl)propyl]carbamic acid, 1,1-dimethylethyl ester]",98%,170 nM,,
"CN(CC(=O)[C@H](Cc1ccccc1)NC(=O)OC(C)(C)C)C[C@@H](O)[C@H](Cc1ccccc1)NC(=O)OC(C)(C)C [Compound 197, [1S-[1R*(2S*,3R*)]]-[3-[[3-[[(1,1-Dimethylethoxy)carbonyl]-amino]-2-hydroxy-4-phenylbutyl]-methylamino]-2-oxo-1-(phenylmethyl)propyl]carbamic acid, 1,1-dimethylethyl ester]",10%,> 10000 nM,,
"CC(C)[C@H](NC(=O)OCc1cc2ccccc2[nH]1)C(=O)N[C@@H](Cc1ccccc1)[C@H](O)CNC[C@@H](O)[C@H](Cc1ccccc1)NC(=O)OC(C)(C)C (relative stereo) [Compound 104, [1R*,2S*(2S*,3R*)]-N-[3-[[3-[[(1,1-dimethylethoxy)carbonyl]amino]-2-hydroxy-4-phenylbutyl]amino]-2-hydroxyl-1-(phenylmethyl)propyl]-N^2-[(1H-indol-2-ylmethoxy)carbonyl]-L-valinamide]",99%,30 nM,,
"CC(C)(C)OC(=O)N[C@@H](Cc1ccccc1)[C@H](O)CNC[C@@H](O)[C@H](Cc1ccccc1)NC(=O)[C@@H](NC(=O)OCc1nc2ccccc2o1)C(C)(C)C [Compound 257, [S-[1R*,2S*(2S*,3R*)]]-[2,2-Dimethyl-1-[[[3-[[3-[[(1,1-dimethylethoxy)carbonyl]amino]-2-hydroxy-4-phenylbutyl]-amino]-2-hydroxy-1-(phenylmethyl)propyl]amino]-carbonyl]propyl]carbamic acid, (2-benzoxazolyl)methyl ester]",99%,30 nM,,
"CC(C)[C@H](NC(=O)c1ccc2ccccc2c1)C(=O)N[C@@H](Cc1ccccc1)[C@H](O)CNC[C@@H](O)[C@H](Cc1ccccc1)NC(=O)OC(C)(C)C [Compound 79, [S-[1R*,2S*(2S*,3R*)]]-N-[3-[[3-[[(1,1-Dimethylethoxy)carbonyl]amino]-2-hydroxy-4-phenylbutyl]amino]-2-hydroxy-1-(phenylmethyl)propyl]-N^2 (2-naphthalenylcarbonyl)-L-valinamide]",99%,400 nM,,
"CC(C)[C@H](NC(=O)OCc1ccccc1)C(=O)N[C@@H](Cc1ccccc1)[C@H](O)CNC[C@@H](O)[C@H](Cc1ccccc1)NC(=O)OC(C)(C)C [Compound 52, [S-[1R*,2S*(2S*, 3R*)]-N-[3-[[3-[[(1,1-Dimethylethoxy)carbonyl]amino]-2-hydroxy-4-phenylbutyl]-amino]-2-hydroxy-1-(phenylmethyl)propyl-N^2-[(phenylmethoxy)carbonyl]-L-valinamide]",100%,200 nM,,
"CC(C)(C)OC(=O)N[C@@H](Cc1ccccc1)[C@H](O)CNC[C@@H](O)[C@H](Cc1ccccc1)NC(=O)[C@@H](NC(=O)OCCOCc1ccccc1)C(C)(C)C [Compound 351, [S-[1R*,2S*(2S*,3R*)]]-[2,2-Dimethyl-1-[[[3-[[3-[[(1,1-dimethyl-ethoxy)carbonyl]amino]-2hydroxy-4-phenylbutyl]amino-2-hydroxy-1-(phenylmethyll)-propyl]amino]carbonyl]propyl]carbamic acid, 2-(phenylmethoxy)ethyl ester]",99%,80 nM,,
"CC(C)[C@H](NC(=O)OCc1ccccc1)C(=O)N[C@@H](Cc1ccccc1)[C@H](O)CNC[C@@H](O)[C@H](Cc1ccccc1)NC(=O)[C@@H](NC(=O)OCc1ccccc1)C(C)C [Compound 42, [1S-(1R*,2S*)]-N,N'-[Iminobis[2-hydroxy-1-(phenylmethyl)-3,1-proanediyl]bis[N^2-[(phenylmethoxy)carbonyl]-L-valinamide]]",100%,600 nM,,
"CC1(C)CCCC1(O)C(=O)N[C@@H](Cc1ccccc1)[C@H](O)CNC[C@@H](O)[C@H](Cc1ccccc1)NC(=O)C1(O)CCCC1(C)C (single isomer, unassigned; isomer b) [Compound 337]",,,99%,290 nM
"CC(C)(C)OC(=O)N[C@@H](Cc1ccccc1)[C@H](O)CNC[C@@H](O)[C@H](Cc1ccccc1)NC(=O)O[C@H]1COC[C@@H]1O [Compound 316, [1S-(1R*,2S*), (3S-trans)]-[Iminobis[2-hydroxy-1-(phenylmethyl)-3,1-propanediyl]]bis[carbamic acid], 4-hydroxy-3-tetrahydrofuranyl 1,1-dimethylethyl ester]",97%,620 nM,,

# Source: patent US5760036A, “Aminediol protease inhibitors” (E. R. Squibb & Sons, Inc., priority 1995, dated 1998)
